According to patent US20120270929A1, “MODULATION OF TTC39 EXPRESSION TO INCREASE HDL” (ISIS Pharmaceuticals, Inc., priority 2009, published 2012):
Oligonucleotides are written 5' to 3', each unit as a sugar letter and its base; * is a phosphorothioate linkage, no mark a phosphodiester; rarer units and linkages stand in square brackets, end groups in braces. Plain capitals give the bases only. e = 2'-O-(2-methoxyethyl) (MOE); [5mC] = 5-methylcytosine; d = 2'-deoxy (DNA)

What was measured:
murine TTC39B mRNA = assay: In vivo antisense inhibition of murine TTC39B mRNA in liver of C57BL/6 mice; design: species or system mouse; details: 50 mg/kg/week, 6 weeks, relative to PBS control
Experimental: (§1) Four groups of five mice each were injected twice a week with 25 mg/kg (totaling 50 mg/kg/week) of ISIS 447114, ISIS 447118, ISIS 447143, or ISIS 447144 for 6 weeks. A control group of five mice was injected with phosphate buffered saline (PBS) twice a week for 6 weeks. Plasma samples were obtained before the start of treatment, at week 3 and at week 6. At the end of the treatment period, mice were fasted for 4 hours before being euthanized. Plasma and tissue samples were obtained for further analysis.
RNA was extracted from liver tissue for real-time PCR analysis of TTC39B using murine primer probe set mTtc39b_LTS00287. […] Results are presented as an average of the percent inhibition of TTC39B, relative to control.

SRB1 mRNA = SRB1 mRNA levels in C57BL/6 mice after TTC39B inhibition; type: in vivo, mouse; details: 50 mg/kg/week, 6 weeks
Experimental: as §1
The effect of inhibition of TTC39B in mice on these proteins of reverse cholesterol transport was studied. RNA levels of ABCA1 were measured using murine primer probe set RTS1204 (forward sequence […], designated herein as SEQ ID NO: 97; reverse sequence […], designated herein as SEQ ID NO: 98; and probe sequence […], designated herein as SEQ ID NO: 99). RNA levels of apoA1 were measured using murine primer probe set RTS14737 (forward sequence […], designated herein as SEQ ID NO: 100; reverse sequence […], designated herein as SEQ ID NO: 101; and probe sequence […], designated herein as SEQ ID NO: 102). RNA levels of SRB1 were measured using murine primer probe set mSRB-1 (forward sequence […], designated herein as SEQ ID NO: 103; reverse sequence ATGCGACTTGTCAGGCTGG, designated herein as SEQ ID NO: 104; and probe sequence […], designated herein as SEQ ID NO: 105).

APOA1 plasma protein = APOA1 plasma protein levels in C57BL/6 mice; type: in vivo, mouse; design: APOA1 plasma protein levels: unit not given here; details: for APOA1 plasma protein % change over the baseline: 6 weeks
Experimental: as §1

PCSK9 mRNA = PCSK9 mRNA levels in C57BL/6 mice; type: in vivo, mouse; details: 50 mg/kg/week, 6 weeks, compared to PBS control
Experimental: as §1
(§2) The effect of inhibition of TTC39B in mice on cholesterol homeostasis was studied. PCSK9 mRNA levels were measured using the murine primer probe set mPCSK9 (forward sequence ACCGACTTCAACAGCGTGC, designated herein as SEQ ID NO: 106; reverse sequence GGCTGTCACACTTGCTCGC, designated herein as SEQ ID NO: 107, probe sequence AGGATGGGACACGCTTCCACAGACAX, wherein X is a fluorophore, designated herein as SEQ ID NO: 108). LDLR mRNA levels were measured using the murine primer probe set mLDLR (forward sequence GACCGCAGCGAGTACACCA, designated herein as SEQ ID NO: 109; reverse sequence TCACCTCCGTGTCGAGAGC, designated herein as SEQ ID NO: 110, probe sequence […], designated herein as SEQ ID NO: 111). The results are presented as percentage inhibition compared to the PBS control.

LDLR mRNA = LDLR mRNA levels in C57BL/6 mice; type: in vivo, mouse; details: 50 mg/kg/week, 6 weeks, compared to PBS control
Experimental: as §1, §2

[1] = Plasma cholesterol and triglycerides in C57BL/6 mice (Olympus AU400e); type: in vivo, mouse; details: for total cholesterol % increase over baseline: 6 weeks, baseline average of 72 mg/dL
Experimental: as §1
To investigate the effect of inhibition of TTC39B on triglycerides and cholesterol levels in the plasma, samples were collected on weeks 0, 3, and 6, and total plasma cholesterol, LDL cholesterol, HDL cholesterol, and triglycerides were analyzed on an Olympus AU400e Analyzer.

[2] = Plasma glucose in C57BL/6 mice (glucose oxidase assay); type: in vivo, mouse
Experimental: as §1
Plasma glucose values were determined using a Beckman Glucose Analyzer II (Beckman Coulter) by a glucose oxidase assay. As presented in Table 14, there was no significant change in glucose levels after treatment with ISIS oligonucleotides.

[3] = Plasma NEFA and 3-HB in C57BL/6 mice; type: in vivo, mouse; design: 3-HB levels: unit not given here; details: for 3-HB % change over the baseline / NEFA % change over the baseline: 6 weeks
Experimental: as §1
Effect of antisense inhibition of TTC39B on free fatty acid levels Plasma levels of non-esterified fatty acids (NEFA) and 3-hydroxybutyric acid (3-HB), which are the end-products of fatty acid oxidation, were measured using an automated clinical chemistry analyzer (Olympus Clinical Analyzer).

[4] = Body and organ weights in C57BL/6 mice; type: in vivo, mouse; details: for Kidney weight after treatment / Liver weight after treatment / Spleen weight after treatment: 50 mg/kg/week, 6 weeks
Experimental: as §1
Body weights of all the mice were measured weekly till the end of the treatment period. Organ weights were taken at the end of the treatment period when the mice were euthanized.

[5] = Week 0 (before treatment), 50 mg/kg/week

## CGGATGATTCTTGCTGGTAA (antisense e[5mC]*eG*eG*eA*eT*dG*dA*dT*dT*d[5mC]*dT*dT*dG*d[5mC]*dT*eG*eG*eT*eA*eA) [ISIS 447114]
Murine TTC39B mRNA
  % inhibition of TTC39B mRNA in liver: 49%
SRB1 mRNA
  srb1 mRNA levels (effect of TTC39B inhibition): −12
APOA1 plasma protein; 50 mg/kg/week
  APOA1 plasma protein % change over the baseline: +122%
APOA1 plasma protein; [5]
  APOA1 plasma protein levels: +9
APOA1 plasma protein; Week 3, 50 mg/kg/week
  APOA1 plasma protein levels: +12
APOA1 plasma protein; Week 6, 50 mg/kg/week
  APOA1 plasma protein levels: +22
PCSK9 mRNA
  Percent inhibition PCSK9 mRNA levels: 24%
LDLR mRNA
  Percent inhibition LDLR mRNA levels: 2%
[1]; 50 mg/kg/week
  total cholesterol % increase over baseline: +61%
[1]; [5]
  HDL cholesterol levels: 42 mg/dL
  LDL cholesterol levels: 11 mg/dL
  total cholesterol levels: 66 mg/dL
  triglyceride levels: 107 mg/dL
[1]; Week 3, 50 mg/kg/week
  HDL cholesterol levels: 47 mg/dL
  HDL cholesterol levels (% change over baseline): +14%
  LDL cholesterol levels: 12 mg/dL
  total cholesterol levels: 70 mg/dL
  triglyceride levels: 66 mg/dL
[1]; Week 6, 50 mg/kg/week
  HDL cholesterol levels: 96 mg/dL
  HDL cholesterol levels (% change over baseline): +130%
  LDL cholesterol levels: 19 mg/dL
  total cholesterol levels: 114 mg/dL
  triglyceride levels: 113 mg/dL
[2]; [5]
  glucose levels: 293 mg/dL
[2]; Week 3, 50 mg/kg/week
  glucose levels: 229 mg/dL
[2]; Week 6, 50 mg/kg/week
  glucose levels: 232 mg/dL
[3]; 50 mg/kg/week
  3-HB % change over the baseline: +184%
  NEFA % change over the baseline: +144%
[3]; [5]
  3-HB levels: 145
  NEFA levels: 0.67 mEq/L
[3]; Week 3, 50 mg/kg/week
  3-HB levels: 109
  NEFA levels: 0.49 mEq/L
[3]; Week 6, 50 mg/kg/week
  3-HB levels: 449
  NEFA levels: 1.52 mEq/L
[4]
  Kidney weight after treatment: 0.33 g
  Liver weight after treatment: 1.3 g
  Spleen weight after treatment: 0.09 g
[4]; Week 3, 50 mg/kg/week
  body weight: 26 g
[4]; Week 6, 50 mg/kg/week
  body weight: 27 g
[4]; week 1, 50 mg/kg/week
  body weight: 25 g
[4]; week 2, 50 mg/kg/week
  body weight: 25 g
[4]; week 4, 50 mg/kg/week
  body weight: 26 g
[4]; week 5, 50 mg/kg/week
  body weight: 27 g

## GCAGCTCGATTCGGGCATGA (antisense eG*e[5mC]*eA*eG*e[5mC]*dT*d[5mC]*dG*dA*dT*dT*d[5mC]*dG*dG*dG*e[5mC]*eA*eT*eG*eA) [ISIS 447118]
Murine TTC39B mRNA
  % inhibition of TTC39B mRNA in liver: 73%
SRB1 mRNA
  srb1 mRNA levels (effect of TTC39B inhibition): 0
APOA1 plasma protein; 50 mg/kg/week
  APOA1 plasma protein % change over the baseline: +88%
APOA1 plasma protein; [5]
  APOA1 plasma protein levels: +9
APOA1 plasma protein; Week 3, 50 mg/kg/week
  APOA1 plasma protein levels: +13
APOA1 plasma protein; Week 6, 50 mg/kg/week
  APOA1 plasma protein levels: +18
PCSK9 mRNA
  Percent inhibition PCSK9 mRNA levels: 45%
LDLR mRNA
  Percent inhibition LDLR mRNA levels: 6%
[1]; 50 mg/kg/week
  total cholesterol % increase over baseline: +37%
[1]; [5]
  HDL cholesterol levels: 45 mg/dL
  LDL cholesterol levels: 14 mg/dL
  total cholesterol levels: 71 mg/dL
  triglyceride levels: 82 mg/dL
[1]; Week 3, 50 mg/kg/week
  HDL cholesterol levels: 50 mg/dL
  HDL cholesterol levels (% change over baseline): +15%
  LDL cholesterol levels: 13 mg/dL
  total cholesterol levels: 77 mg/dL
  triglyceride levels: 69 mg/dL
[1]; Week 6, 50 mg/kg/week
  HDL cholesterol levels: 100 mg/dL
  HDL cholesterol levels (% change over baseline): +89%
  LDL cholesterol levels: 15 mg/dL
  total cholesterol levels: 97 mg/dL
  triglyceride levels: 88 mg/dL
[2]; [5]
  glucose levels: 242 mg/dL
[2]; Week 3, 50 mg/kg/week
  glucose levels: 271 mg/dL
[2]; Week 6, 50 mg/kg/week
  glucose levels: 238 mg/dL
[3]; 50 mg/kg/week
  3-HB % change over the baseline: +157%
  NEFA % change over the baseline: +90%
[3]; [5]
  3-HB levels: 158
  NEFA levels: 0.67 mEq/L
[3]; Week 3, 50 mg/kg/week
  3-HB levels: 111
  NEFA levels: 0.51 mEq/L
[3]; Week 6, 50 mg/kg/week
  3-HB levels: 406
  NEFA levels: 1.18 mEq/L
[4]
  Kidney weight after treatment: 0.32 g
  Liver weight after treatment: 1.4 g
  Spleen weight after treatment: 0.08 g
[4]; Week 3, 50 mg/kg/week
  body weight: 26 g
[4]; Week 6, 50 mg/kg/week
  body weight: 27 g
[4]; week 1, 50 mg/kg/week
  body weight: 24 g
[4]; week 2, 50 mg/kg/week
  body weight: 25 g
[4]; week 4, 50 mg/kg/week
  body weight: 26 g
[4]; week 5, 50 mg/kg/week
  body weight: 27 g

## GCCACCAGTGCCTGCTGAGC (antisense eG*e[5mC]*e[5mC]*eA*e[5mC]*d[5mC]*dA*dG*dT*dG*d[5mC]*d[5mC]*dT*dG*d[5mC]*eT*eG*eA*eG*e[5mC]) [ISIS 447143]
Murine TTC39B mRNA
  % inhibition of TTC39B mRNA in liver: 85%
SRB1 mRNA
  srb1 mRNA levels (effect of TTC39B inhibition): 0
APOA1 plasma protein; 50 mg/kg/week
  APOA1 plasma protein % change over the baseline: +108%
APOA1 plasma protein; [5]
  APOA1 plasma protein levels: +10
APOA1 plasma protein; Week 3, 50 mg/kg/week
  APOA1 plasma protein levels: +15
APOA1 plasma protein; Week 6, 50 mg/kg/week
  APOA1 plasma protein levels: +20
PCSK9 mRNA
  Percent inhibition PCSK9 mRNA levels: 65%
LDLR mRNA
  Percent inhibition LDLR mRNA levels: 34%
[1]; 50 mg/kg/week
  total cholesterol % increase over baseline: +46%
[1]; [5]
  HDL cholesterol levels: 44 mg/dL
  LDL cholesterol levels: 13 mg/dL
  total cholesterol levels: 70 mg/dL
  triglyceride levels: 95 mg/dL
[1]; Week 3, 50 mg/kg/week
  HDL cholesterol levels: 56 mg/dL
  HDL cholesterol levels (% change over baseline): +28%
  LDL cholesterol levels: 14 mg/dL
  total cholesterol levels: 81 mg/dL
  triglyceride levels: 92 mg/dL
[1]; Week 6, 50 mg/kg/week
  HDL cholesterol levels: 91 mg/dL
  HDL cholesterol levels (% change over baseline): +104%
  LDL cholesterol levels: 17 mg/dL
  total cholesterol levels: 104 mg/dL
  triglyceride levels: 95 mg/dL
[2]; [5]
  glucose levels: 238 mg/dL
[2]; Week 3, 50 mg/kg/week
  glucose levels: 231 mg/dL
[2]; Week 6, 50 mg/kg/week
  glucose levels: 241 mg/dL
[3]; 50 mg/kg/week
  3-HB % change over the baseline: +41%
  NEFA % change over the baseline: +109%
[3]; [5]
  3-HB levels: 108
  NEFA levels: 0.70 mEq/L
[3]; Week 3, 50 mg/kg/week
  3-HB levels: 89
  NEFA levels: 0.72 mEq/L
[3]; Week 6, 50 mg/kg/week
  3-HB levels: 222
  NEFA levels: 1.30 mEq/L
[4]
  Kidney weight after treatment: 0.34 g
  Liver weight after treatment: 1.5 g
  Spleen weight after treatment: 0.08 g
[4]; Week 3, 50 mg/kg/week
  body weight: 27 g
[4]; Week 6, 50 mg/kg/week
  body weight: 28 g
[4]; week 1, 50 mg/kg/week
  body weight: 26 g
[4]; week 2, 50 mg/kg/week
  body weight: 26 g
[4]; week 4, 50 mg/kg/week
  body weight: 27 g
[4]; week 5, 50 mg/kg/week
  body weight: 28 g
